For 14 compounds, IC50 results are on record in patent US20110124634A1, “BIOACTIVE COMPOUNDS FOR TREATMENT OF CANCER AND NEURODEGENERATIVE DISEASES” (PONIARD PHARMACEUTICALS, INC., priority 2008, published 2011).

Holding throughout (assay type): cell-based
In assay [1] the test system is HSP90 client protein Her2 in SKBR-3 cells. Nature of the assay: Her-2 degradation assay (Her-2 ELISA) in SKBr-3 cells. Particulars: Homo sapiens. As for the experimental part: Most of the compounds synthesized were evaluated for their ability to induce degradation of the HSP90 client protein Her2 in SKBR-3 cells. Selected compounds were evaluated in a fluorescence polarization (FP) assay for their affinity to HSP90.
SKBr-3 cells grown in McCoy's 5a Medium supplemented with 10% fetal bovine serum (FBS) were plated into 12-well plates at 50% confluency. Increasing concentrations of inhibitors were added 24 hours later (cells are 65-70% confluent) and incubated overnight for 18 hours. The wells were washed with 2 ml of phosphate buffered saline (PBS), and 50 ul of trypsin was added to each well. After trypsinization was complete, 150 ul of FBS was added to each well. Then 200 ul of cells were transferred to 96-well plates and plates were centrifuged at 1200 rpm for 2 minutes using a tabletop centrifuge. The cells were washed once with 250 ul PBS before being lysed with 100 ul of 50 mM Tris (pH 7.4), 0.1% NP-40 lysis buffer. Protein concentrations of clarified lysates were determined using the BCA Assay (Calbiochem) according to the manufacturer's instructions. 2 ug of each lysate was analyzed in the human sp 185 Her-2 ELISA (Bender Medsystems) according to the manufacturer's instructions. ELISA plates were read at 450 nm using a multiwell plate spectrophotometer. Background was determined by measuring the Abs 450 nm of wells with no lysate added. The background value was subtracted from all values. Absorbance 450 nm values for each inhibitor were plotted against the log 10 inhibitor concentration, and IC50 values were calculated using a nonlinear least-square curve fitting program in Prism 5.
In general terms: ELISA stands for enzyme-linked immunosorbent assay.

The test system of the next assay is MCF-7. Nature of the assay: MTS assay (cytotoxicity), growth inhibition of MCF-7. The note with it: Homo sapiens, MCF7, 120 h, Table 5, series III, 5 days, read-out: Growth Inhibition (IC50) MCF-7. As for the experimental part:
(§1) Cells were seeded in 96-well plates at 2000 cells/well in a final culture volume of 100 ul for 24 hours before the addition of 25 ul of increasing concentrations of inhibitors that was incubated for 5 days. Viable cell number was determined using the CellTiter 96 AQueous One Solution Cell Proliferation Assay (Promega). Plates were read at 490 nm absorbance 2-4 hours after addition of the MTS reagent using a multiwell plate spectrophotometer. Background was determined by measuring the Abs 490 nm of cell culture medium and MTS in the absence of cells. The background value was subtracted from all values. Absorbance 490 nm values for each inhibitor were plotted against the log 10 inhibitor concentration, and IC50 values were calculated using a nonlinear least-square curve fitting program in Prism 5.
On the technique in general: Tetrazolium assays rely on reduction of a dye to a coloured formazan, in cell work by metabolically active cells.

For the next assay, the system named is SKBR-3. In words: MTS assay (cytotoxicity), growth inhibition of SKBR-3. Particulars: Homo sapiens, SK-BR-3, 120 h, Table 5, series III, 5 days, read-out: Growth Inhibition (IC50) SKBR-3. The method, then:
as §1

In the next assay the test system is BT474. In words: MTS assay (cytotoxicity), growth inhibition of BT474. Particulars: Homo sapiens, BT-474, 120 h, Table 5, series III, 5 days, read-out: Growth Inhibition (IC50) BT474. As for the experimental part:
as §1

Setting [2] is: SK-BR-3, Table 5, series III, 18 hours.

With `COc1cc(CN2CC(=O)N(CC(C)C)c3c(Cl)nc(N)nc32)c(Cl)c(OC)c1OC` [Example I-36], the IC50 (as a rule, the point on the concentration scale where inhibition reaches its midpoint) in assay [1] (SK-BR-3, Table 3, 18 hours, means of three independent experiments) was over 5000 nM.

As for `CCN(CC)CCCNC(=O)c1c[nH]c(/C=C2\C(=O)N(Cc3ncc(C)c(OC)c3C)c3nc(N)nc(Cl)c32)c1` [III-29, (Z)-5-((2-Amino-4-chloro-7-((4-methoxy-3,5-dimethylpyridin-2-yl)methyl)-6-oxo-6,7-dihydro-5H-pyrrolo[2,3-d]pyrimidin-5-ylidene)methyl)-N-(3-(diethylamino)propyl)-1H-pyrrole-3-carboxamide], the IC50 came out at 410 nM in the assay on MCF-7, 20 nM in the assay with SKBR-3, 30 nM in the assay on BT474 and 70 nM in assay [1] (setting [2]).

Consider `COc1c(C)cnc(CN2C(=O)/C(=C\c3cc(C(=O)NCCN4CCC(=O)CC4)c[nH]3)c3c(Cl)nc(N)nc32)c1C` [III-36, (Z)-5-((2-Amino-4-chloro-7-((4-methoxy-3,5-dimethylpyridin-2-yl)methyl)-6-oxo-6,7-dihydro-5H-pyrrolo[2,3-d]pyrimidin-5-ylidene)methyl)-N-(2-(4-oxopiperidin-1-yl)ethyl)-1H-pyrrole-3-carboxamide], for which the IC50 came out at 410 nM with MCF-7, 0.9 nM in the assay on SKBR-3, 3 nM with BT474 and 8 nM in assay [1] (setting [2]).

Turning to `CCN(CC)CCNC(=O)c1c[nH]c(/C=C2\C(=O)N(Cc3nc(C)c(C)s3)c3nc(N)nc(Cl)c32)c1` [III-69, (Z)-5-((2-Amino-4-chloro-7-((4,5-dimethylthiazol-2-yl)methyl)-6-oxo-6,7-dihydro-5H-pyrrolo[2,3-d]pyrimidin-5-ylidene)methyl)-N-(2-(diethylamino)ethyl)-1H-pyrrole-3-carboxamide], the 50% inhibitory concentration (IC50) is 770 nM in the assay on MCF-7, 10 nM with SKBR-3, 60 nM in the assay with BT474 and 10 nM in assay [1] (setting [2]).

In the case of `Cc1nc(CN2C(=O)/C(=C\c3cc(C(=O)NCCN4CCOCC4)c[nH]3)c3c(Cl)nc(N)nc32)sc1C` [III-70], the IC50 with MCF-7 is 320 nM; in the assay on SKBR-3, 20 nM; in the assay with BT474 it was 80 nM; in assay [1] (setting [2]) it was 40 nM.

Consider `COc1c(C)cnc(CN2C(=O)/C(=C\c3nc(NC(=O)C(C)C)c[nH]3)c3c(Cl)nc(N)nc32)c1C` [III-71, (Z)-N-(2-((2-Amino-4-chloro-7-((4-methoxy-3,5-dimethylpyridin-2-yl)methyl)-6-oxo-6,7-dihydro-5H-pyrrolo[2,3-d]pyrimidin-5-ylidene)methyl)-1H-imidazol-4-yl)isobutyramide], for which the IC50 in the assay on MCF-7 is 370 nM; with SKBR-3, 30 nM; with BT474, 80 nM; in assay [1] (setting [2]), 50 nM.

For the compound `CCN(CC)CCCc1ccc(/C=C2\C(=O)N(Cc3ncc(C)c(OC)c3C)c3nc(N)nc(Cl)c32)[nH]1` [III-86], the IC50 was determined as 1370 nM in the assay with MCF-7, 1130 nM in the assay on SKBR-3, 760 nM in the assay on BT474 and 310 nM in assay [1] (setting [2]).

In the case of `COc1c(C)cnc(CN2C(=O)/C(=C\c3cc(C(=O)CN4CCOCC4)c[nH]3)c3c(Cl)nc(N)nc32)c1C` [III-93, (Z)-2-Amino-4-chloro-7-((4-methoxy-3,5-dimethylpyridin-2-yl)methyl)-5-((4-(2-morpholinoacetyl)-1H-pyrrol-2-yl)methylene)-5H-pyrrolo[2,3-d]pyrimidin-6(7H)-one], the half-maximal inhibitory concentration (IC50) worked out at 130 nM in the assay with MCF-7, 10 nM with SKBR-3, 60 nM with BT474 and 20 nM in assay [1] (setting [2]).

As to `CCN(CC)CC(=O)c1c[nH]c(/C=C2\C(=O)N(Cc3ncc(C)c(OC)c3C)c3nc(N)nc(Cl)c32)c1` [III-95, (Z)-2-Amino-4-chloro-5-((4-(2-(diethylamino)acetyl)-1H-pyrrol-2-yl)methylene)-7-((4-methoxy-3,5-dimethylpyridin-2-yl)methyl)-5H-pyrrolo[2,3-d]pyrimidin-6(7H)-one], the IC50 came to 710 nM in the assay with MCF-7, 2 nM in the assay with SKBR-3, 20 nM in the assay on BT474 and 10 nM in assay [1] (setting [2]).

Regarding `COc1c(C)cnc(CN2C(=O)/C(=C\c3[nH]c(C)c(C(=O)NCCN4CCOCC4)c3C)c3c(Cl)nc(N)nc32)c1C` [III-103, (Z)-5-((2-Amino-4-chloro-7-((4-methoxy-3,5-dimethylpyridin-2-yl)methyl)-6-oxo-6,7-dihydro-5H-pyrrolo[2,3-d]pyrimidin-5-ylidene)methyl)-2,4-dimethyl-N-(2-morpholinoethyl)-1H-pyrrole-3-carboxamide], the IC50 with MCF-7 turned out to be 810 nM; in the assay on SKBR-3, 40 nM; with BT474, 110 nM; in assay [1] (setting [2]), 70 nM.

As for `COc1c(C)cnc(CN2C(=O)/C(=C\c3[nH]c(C)c(C(=O)NCCN4CCCC4)c3C)c3c(Cl)nc(N)nc32)c1C` [III-104, (Z)-5-((2-Amino-4-chloro-7-((4-methoxy-3,5-dimethylpyridin-2-yl)methyl)-6-oxo-6,7-dihydro-5H-pyrrolo[2,3-d]pyrimidin-5-ylidene)methyl)-2,4-dimethyl-N-(2-(pyrrolidin-1-yl)ethyl)-1H-pyrrole-3-carboxamide], the IC50 in the assay with MCF-7 stood at 5880 nM; in the assay with SKBR-3, 10 nM; in the assay with BT474 it was 190 nM; in assay [1] (setting [2]), 10 nM.

Take `COc1c(C)cnc(CN2C(=O)/C(=C\c3[nH]c(C)c(C(=O)NCCN4CCCCC4)c3C)c3c(Cl)nc(N)nc32)c1C` [III-105, (Z)-5-((2-Amino-4-chloro-7-((4-methoxy-3,5-dimethylpyridin-2-yl)methyl)-6-oxo-6,7-dihydro-5H-pyrrolo[2,3-d]pyrimidin-5-ylidene)methyl)-2,4-dimethyl-N-(2-(piperidin-1-yl)ethyl)-1H-pyrrole-3-carboxamide]: the IC50 in the assay on MCF-7 was over 1000 nM; in the assay on SKBR-3, 100 nM; in the assay on BT474, 1280 nM; in assay [1] (setting [2]), 70 nM.

As for `COc1c(C)cnc(CN2C(=O)/C(=C\c3[nH]c(C)c(C(=O)NCCN4CCS(=O)(=O)CC4)c3C)c3c(Cl)nc(N)nc32)c1C` [III-106, 5-[2-Amino-4-chloro-7-(4-methoxy-3,5-dimethyl-pyridin-2-ylmethyl)-6-oxo-6,7-dihydro-pyrrolo[2,3-d]pyrimidin-(5Z)-ylidenemethyl]-2,4-dimethyl-1H-pyrrole-3-carboxylic acid [2-(1,1-dioxo-thiomorpholin-4-yl)-ethyl]-amide], the IC50 in the assay with MCF-7 was 240 nM; with SKBR-3, 40 nM; with BT474, 90 nM; in assay [1] (setting [2]) it was 40 nM.

For the compound `COc1c(C)cnc(CN2C(=O)/C(=C\c3[nH]c(C)c(C(=O)NCCN4CCC(O)CC4)c3C)c3c(Cl)nc(N)nc32)c1C` [III-107, (Z)-5-((2-Amino-4-chloro-7-((4-methoxy-3,5-dimethylpyridin-2-yl)methyl)-6-oxo-6,7-dihydro-5H-pyrrolo[2,3-d]pyrimidin-5-ylidene)methyl)-N-(2-(4-hydroxypiperidin-1-yl)ethyl)-2,4-dimethyl-1H-pyrrole-3-carboxamide], the 50% inhibitory concentration (IC50) in the assay on MCF-7 turned out to be 230 nM; in the assay on SKBR-3, 5 nM; in the assay on BT474 it was 20 nM; in assay [1] (setting [2]), 20 nM.
